In ChEMBL document CHEMBL3885861, “Open TG-GATES”:

Organism: Rattus norvegicus
Assay: Open TG-GATES - Regimen: Single
Type: toxicity, organism-based, Sprague-Dawley
Design: regimen Single, gender Male, age 6 weeks
Conditions: in vivo, po, route gavage; for Bas / Eos / Ht / Lym / MCH / Mono / Neu / RBC / Ret: tissue Blood; for KIDNEY_L / KIDNEY_R / KIDNEY_TOTAL: tissue Kidney; for ALP / ALT / AST / CRE / DBIL / IP / K / LDH / Na / PL / RALB / TBIL / TC / TG / TP / gamma-GTP / Ca: tissue Plasma; for LIVER: tissue Liver
[1] = 0 mg/kg, 3 h, dose level Control
[2] = 0 mg/kg, 6 h, dose level Control
[3] = 0 mg/kg, 9 h, dose level Control
[4] = 0 mg/kg, 24 h, dose level Control

Compound: COc1cc2ncnc(Nc3ccc(F)c(Cl)c3)c2cc1OCCCN1CCOCC1 [GEFITINIB]
- TERMINAL_BW [1]: 216 g
- Bas [1]: 0%
- Eos [1]: 0.8%
- Ht [1]: 39.6%
- Lym [1]: 74.2%
- MCH [1]: 21.5 pg
- Mono [1]: 2.6%
- Neu [1]: 21.8%
- RBC [1]: 610.2 x10_4/ul
- Ret [1]: 9.3%
- KIDNEY_L [1]: 0.9 g
- KIDNEY_R [1]: 0.9 g
- KIDNEY_TOTAL [1]: 1.8 g
- ALP [1]: 1581.8 IU/L
- ALT [1]: 42.2 IU/L
- AST [1]: 73.2 IU/L
- CRE [1]: 0.2 mg/dL
- DBIL [1]: 0 mg/dL
- IP [1]: 8.2 mg/dL
- K [1]: 4.1 meq/L
- LDH [1]: 183.2 IU/L
- Na [1]: 143.1 meq/L
- PL [1]: 148.6 mg/dL
- RALB [1]: 3.9 g/dL
- TBIL [1]: 0.02 mg/dL
- TC [1]: 85.4 mg/dL
- TG [1]: 64.2 mg/dL
- TP [1]: 5.5 g/dL
- gamma-GTP [1]: 1.1 IU/L
- TERMINAL_BW [2]: 212.6 g
- Bas [2]: 0%
- Eos [2]: 0.8%
- Ht [2]: 40.1%
- Lym [2]: 83.6%
- MCH [2]: 21.4 pg
- Mono [2]: 2.4%
- Neu [2]: 12.8%
- RBC [2]: 623.6 x10_4/ul
- Ret [2]: 9.7%
- KIDNEY_L [2]: 0.9 g
- KIDNEY_R [2]: 1 g
- KIDNEY_TOTAL [2]: 1.9 g
- LIVER [2]: 9.6 g
- ALP [2]: 1643.4 IU/L
- ALT [2]: 41.2 IU/L
- AST [2]: 71 IU/L
- CRE [2]: 0.1 mg/dL
- Ca [2]: 10.6 mg/dL
- DBIL [2]: 0.002 mg/dL
- IP [2]: 9.6 mg/dL
- K [2]: 4.2 meq/L
- LDH [2]: 200.6 IU/L
- Na [2]: 142.5 meq/L
- PL [2]: 158.8 mg/dL
- RALB [2]: 3.9 g/dL
- TBIL [2]: 0.018 mg/dL
- TC [2]: 90.8 mg/dL
- TG [2]: 78.2 mg/dL
- TP [2]: 5.4 g/dL
- gamma-GTP [2]: 1 IU/L
- TERMINAL_BW [3]: 210 g
- Bas [3]: 0%
- Eos [3]: 1%
- Ht [3]: 38.5%
- Lym [3]: 77.6%
- MCH [3]: 21.3 pg
- Mono [3]: 3.4%
- Neu [3]: 17.6%
- RBC [3]: 601.2 x10_4/ul
- Ret [3]: 9.4%
- KIDNEY_L [3]: 1 g
- KIDNEY_R [3]: 0.9 g
- KIDNEY_TOTAL [3]: 1.9 g
- LIVER [3]: 9 g
- ALP [3]: 1562.4 IU/L
- ALT [3]: 35.2 IU/L
- AST [3]: 67.2 IU/L
- CRE [3]: 0.1 mg/dL
- DBIL [3]: 0.004 mg/dL
- IP [3]: 10 mg/dL
- K [3]: 4.2 meq/L
- LDH [3]: 169 IU/L
- Na [3]: 143.4 meq/L
- PL [3]: 139.6 mg/dL
- RALB [3]: 3.9 g/dL
- TBIL [3]: 0.022 mg/dL
- TC [3]: 81.6 mg/dL
- TG [3]: 67.3 mg/dL
- TP [3]: 5.4 g/dL
- gamma-GTP [3]: 1 IU/L
- TERMINAL_BW [4]: 223.4 g
- Bas [4]: 0%
- Eos [4]: 1%
- Ht [4]: 39.9%
- Lym [4]: 78.5%
- MCH [4]: 20.8 pg
- Mono [4]: 3.5%
- Neu [4]: 16%
- RBC [4]: 619.8 x10_4/ul
- Ret [4]: 8.2%
- KIDNEY_L [4]: 1 g
- KIDNEY_R [4]: 1 g
- KIDNEY_TOTAL [4]: 1.9 g
- LIVER [4]: 10.6 g
- ALT [4]: 44.5 IU/L
- AST [4]: 75.8 IU/L
- CRE [4]: 0.2 mg/dL
- Ca [4]: 10.8 mg/dL
- DBIL [4]: 0 mg/dL
- IP [4]: 7.4 mg/dL
- K [4]: 4.4 meq/L
- LDH [4]: 145.5 IU/L
- Na [4]: 142.1 meq/L
- PL [4]: 149.5 mg/dL
- RALB [4]: 4.2 g/dL
- TBIL [4]: 0.01 mg/dL
- TC [4]: 79 mg/dL
- TG [4]: 122.7 mg/dL
- TP [4]: 5.7 g/dL
- gamma-GTP [4]: 1.3 IU/L
- TERMINAL_BW (200 mg/kg, 3 h, dose level Low): 214.5 g
